Laboratory results reported in patent publication US20200129450A1, “COMPOSITION COMPRISING OSMUNDACETONE OR PHARMACEUTICALLY ACCEPTABLE SALT THEREOF FOR PREVENTING OR TREATING BONE DISEASE” (KORPHARM CO., LTD., priority 2016, published 2020).

Experiments:
B16F10 mouse melanoma = assay: MTT assay cytotoxicity; assay type: cell-based; conditions: B16F10, 24 hours
Procedure: (§1) HaCaT human epidermal keratinocytes, # ATCC PCS-200-011) were incubated using Dulbecco's modified Eagle's medium (DMEM, # DMEM-HPA, Capricorn Scientific, Ebsdorfergrund, Germany) in the conditions of 37° C. and 5% CO2. NIH3T3 mouse embryo fibroblasts (# KCLB 21658), RAW264.7 murine macrophages (preosteoclast cell line, # KCLB 40071), HCT116 human colon cancer cells (# KCLB 10247), PC3 human prostate adenocarcinoma cells (# KCLB 21435), HT1080 human fibrosarcoma cells (# KCLB 1121), and B16F10 mouse malignant melanoma cells (# KCLB 80008) were purchased from the Korean Cell Line Bank, and incubated using DMEM in the conditions of 37° C. and 5% C02.
(§2) The compound isolated from Osmunda japonica, prepared in section 1 of <Example 1>, was investigated for cytotoxicity using MTT assay.
(§3) MTT assay was as follows.
(§4) Cells were incubated at 1×10^3 cells/well in a 96-well plate containing DMEM with 10% fetal bovine serum (FBS) at 5% CO2 and 37° C., and then osmundacetone was added to the cell medium, followed by incubation for 24 hours. Thereafter, 100 μL of MTT (0.5 mg/ml PBS) was administered, followed by incubation for 2 hours. […] After incubation for 10 minutes, the absorbance was measured using a microplate reader (SPCTRA MAX 340PC, Molecular Devices, USA) at 570 nm. The absorbance is an indicator showing the number of living cells, and calculated by the following equation. […]

[1] = tested on: NIH3T3 mouse embryo fibroblasts; assay: MTT assay cytotoxicity; assay type: cell-based; conditions: NIH3T3, 24 hours, read-out: IC50 according to MTT assay
Procedure: as §1, §2, §3, §4

For `CC(=O)/C=C/c1ccc(O)c(O)c1` [Osmundacetone, (3E)-4-(3,4-dihydroxyphenyl)-3-buten-2-one], the “LD50 (MTT assay)” value (B16F10 mouse melanoma) was 75.8 ± 9.2 µM and the IC50 [1] was > 5 mM.
